In US20240123079A1 (Seagen Inc., priority 2021, published 2024):
Read-outs that look alike come from different tables or passages of the source.

System: THP1-Dual™ reporter cells
Test: THP1-Dual cell reporter assay (IRF-Lucia luciferase reporter)
Type: cell-based, human
Procedure: THP1-Dual™ Cell Reporter Assay
Potency of compounds and ADCs was evaluated using the THP1-Dual™ cells (InvivoGen PN: thpd-nfis [also referred to as THP1 dual reporter cells]), which contain an IRF-Lucia luciferase reporter. Cells were cultured in RPMI-1640 (Gibco) with 10% heat-inactivated fetal bovine serum, Pen-Strep (100 U/mL-100 μg/mL, Gibco), HEPES (10 mM, Gibco)), sodium pyruvate (1 mM, Gibco), MEM non-essential amino acids (1×, Gibco), GlutaMAX (1×, Gibco), and beta-mercaptoethanol (55 μM, Gibco). Cells were plated in a 96-well flat bottom tissue culture-treated clear polystyrene plate (Corning Costar #3596) at ˜100,000 cells per well in 200 μL with the indicated concentration of the compound or ADC. The supernatant was harvested at 24 hours (compounds) or 48 hours (ADC) post plating for the reporter assay, or as indicated. To measure Lucia reporter signal, 10 μL of the supernatant was combined with 40 μL of QUANTI-Luc™ Luminescence assay reagent (Invivogen PN: rep-qlc1) in a 96-well clear flat bottom tissue culture-treated black polystyrene plate (Corning Costar #3603) and read on a Perkin Elmer Envision plate reader.
STING agonist compounds were assessed for their ability to activate THP1-Dual™ reporter cells, a human monocytic cell line in which type I interferon (IRF) signaling can be monitored via a secreted luciferase reporter protein (Lucia). THP1-Dual™ cells were treated with increasing concentrations of the agonists for 24h, then supernatants were harvested and the Lucia reporter signal was quantified using QUANTI-Luc™ Luminescence assay reagent.

[1] = Homo sapiens, THP1-Dual, free compounds, 24 h, Lucia reporter signal, read-out: EC50
[2] = ADCs: drug linker conjugated to a targeted mAb, 48 h
[3] = free compounds, 24 h, Lucia reporter signal, read-out: EC50

For `CCn1nc(C)cc1C(=O)Nc1nc2cc(C(N)=O)cc(OC)c2n1C/C=C/Cn1c(NC(=O)c2cc(C)nn2CC)nc2cc(C(N)=O)cc(OCCCN(C)C(=O)CCN3C(=O)C=CC3=O)c21` [Compound 12, (E)-1-(4-(5-carbamoyl-2-(1-ethyl-3-methyl-1H-pyrazole-5-carboxamido)-7-methoxy-1H-benzo[d]imidazol-1-yl)but-2-en-1-yl)-7-(3-(3-(2,5-dioxo-2,5-dihydro-1H-pyrrol-1-yl)-N-methylpropanamido)propoxy)-2-(1-ethyl-3-methyl-1H-pyrazole-5-carboxamido)-1H-benzo[d]imidazole-5-carboxamide], the EC50 (Homo sapiens, THP1-Dual, 24 h, free compounds, 24 h, Lucia reporter signal, read-out: EC50) was 37 nM.
In the case of `CCn1nc(C)cc1C(=O)Nc1nc2cc(C(N)=O)cc(OC)c2n1C/C=C/Cn1c(NC(=O)c2cc(C)nn2CC)nc2cc(C(N)=O)cc(OCCCN(C)C(=O)OCc3ccc(O[C@@H]4O[C@H](C(=O)O)[C@@H](O)[C@H](O)[C@H]4O)cc3NC(=O)CCNC(=O)CCN3C(=O)C=CC3=O)c21` [Compound 13], the “potency of ADC relative to other ADC” value (conjugated to a targeted mAb, 48 h) is reported as “more potent”.
`CCn1nc(C)cc1C(=O)Nc1nc2cc(C(N)=O)cc(O)c2n1C/C=C/Cn1c(NC(=O)c2cc(C)nn2CC)nc2cc(C(N)=O)cc(OCCCNC)c21` [Compound 15b] was tested, and the EC50 [1] was 5.8 nM and the “potency relative to other free compound” value (free drug) was “more potent than 12a”.
With `CCn1nc(C)cc1C(=O)Nc1nc2cc(C(N)=O)cc(OC)c2n1C/C=C/Cn1c(NC(=O)c2cc(C)nn2CC)nc2cc(C(N)=O)cc(OCCCN(C)C(=O)[C@H](CC(=O)O)NC(=O)CCN3C(=O)C=CC3=O)c21` [Compound 17, (S,E)-4-((3-((5-carbamoyl-1-(4-(5-carbamoyl-2-(1-ethyl-3-methyl-1H-pyrazole-5-carboxamido)-7-methoxy-1H-benzo[d]imidazol-1-yl)but-2-en-1-yl)-2-(1-ethyl-3-methyl1H-pyrazole-5-carboxamido)-1H-benzo[d]imidazol-7-yl)oxy)propyl)(methyl)amino)-3-(3-(2,5-dioxo-2,5-dihydro-1H-pyrrol-1-yl)propanamido)-4-oxobutanoic acid] the “EC50” value [2] was 0.0022 µg/mL and the EC50 [1] was 66.3 nM.
For `CCn1nc(C)cc1C(=O)Nc1nc2cc(C(N)=O)cc(OC)c2n1C/C=C/Cn1c(NC(=O)c2cc(C)nn2CC)nc2cc(C(N)=O)cc(OCCCN(C)C(=O)[C@H](CO)NC(=O)CCN3C(=O)C=CC3=O)c21` [Compound 24, (S,E)-1-(4-(5-carbamoyl-2-(1-ethyl-3-methyl-1H-pyrazole-5-carboxamido)-7-methoxy-1H-benzo[d]imidazol-1-yl)but-2-en-1-yl)-7-(3-(2-(3-(2,5-dioxo-2,5-dihydro-1H-pyrrol-1-yl)propanamido)-3-hydroxy-N-methylpropanamido)propoxy)-2-(1-ethyl-3-methyl-1H-pyrazole-5-carboxamido)-1H-benzo[d]imidazole-5-carboxamide], the “EC50” value [2] was 0.0021 µg/mL and the EC50 [1] was 83.3 nM.
For `CCn1nc(C)cc1C(=O)Nc1nc2cc(S(N)(=O)=O)ccc2n1C/C=C/Cn1c(NC(=O)c2cc(C)nn2CC)nc2cc(C(N)=O)cc(OCCCN(C)C(=O)CCN3C(=O)C=CC3=O)c21` [Compound 25, (E)-7-(3-(3-(2,5-dioxo-2,5-dihydro-1H-pyrrol-1-yl)-N-methylpropanamido)propoxy)-2-(1-ethyl-3-methyl-1H-pyrazole-5-carboxamido)-1-(4-(2-(1-ethyl-3-methyl-1H-pyrazole-5-carboxamido)-5-sulfamoyl-1H-benzo[d]imidazol-1-yl)but-2-en-1-yl)-1H-benzo[d]imidazole-5-carboxamide], the “EC50” value [2] was 0.307 µg/mL.
`CCn1nc(C)cc1C(=O)Nc1nc2cc(S(N)(=O)=O)ccc2n1C/C=C/Cn1c(NC(=O)c2cc(C)nn2CC)nc2cc(C(N)=O)cc(OCCCN(C)C(=O)OC(C)(C)C)c21` [Compound 25f] gave an EC50 [1] of 12 nM.
`CCn1nc(C)cc1C(=O)Nc1nc2cc(S(N)(=O)=O)ccc2n1C/C=C/Cn1c(NC(=O)c2cc(C)nn2CC)nc2cc(C(N)=O)cc(OCCCNC)c21` [Compound 25g] gave an EC50 [1] of 1580 nM.
With `CCn1nc(C)cc1C(=O)Nc1nc2cc(C(N)=O)cc(OC)c2n1C/C=C/Cn1c(NC(=O)c2cc(C)nn2CC)nc2cc(C(N)=O)cc(OCCC3CN(C(=O)CCN4C(=O)C=CC4=O)C3)c21` [Compound 26, (E)-1-(4-(5-carbamoyl-2-(1-ethyl-3-methyl-1H-pyrazole-5-carboxamido)-7-methoxy-1H-benzo[d]imidazol-1-yl)but-2-en-1-yl)-7-(2-(1-(3-(2,5-dioxo-2,5-dihydro-1H-pyrrol-1-yl)propanoyl)azetidin-3-yl)ethoxy)-2-(1-ethyl-3-methyl-1H-pyrazole-5-carboxamido)-1H-benzo[d]imidazole-5-carboxamide] the “EC50” value [2] was 0.0144 µg/mL.
Compound `CCn1nc(C)cc1C(=O)Nc1nc2cc(C(N)=O)cc(OC)c2n1C/C=C/Cn1c(NC(=O)c2cc(C)nn2CC)nc2cc(C(N)=O)cc(OCCC3CN(C(=O)OC(C)(C)C)C3)c21` [Compound 26e] has an EC50 [3] of 5 nM.
For `CCn1nc(C)cc1C(=O)Nc1nc2cc(C(N)=O)cc(OC)c2n1C/C=C/Cn1c(NC(=O)c2cc(C)nn2CC)nc2cc(C(N)=O)cc(OCCC3CNC3)c21` [Compound 26f], the EC50 [1] was 69 nM.
In the case of `CCn1nc(C)cc1C(=O)Nc1nc2cc(C(N)=O)cc(OC)c2n1C/C=C/Cn1c(NC(=O)c2cc(C)nn2CC)nc2cc(C(N)=O)cc(OCCCOC3CN(C(=O)CCN4C(=O)C=CC4=O)C3)c21` [Compound 27, (E)-1-(4-(5-carbamoyl-2-(1-ethyl-3-methyl-1H-pyrazole-5-carboxamido)-7-methoxy-1H-benzo[d]imidazol-1-yl)but-2-en-1-yl)-7-(3-((1-(3-(2,5-dioxo-2,5-dihydro-1H-pyrrol-1-yl)propanoyl)azetidin-3-yl)oxy)propoxy)-2-(1-ethyl-3-methyl-1H-pyrazole-5-carboxamido)-1H-benzo[d]imidazole-5-carboxamide], the “EC50” value [2] is reported as 0.0104 µg/mL.
Compound `CCn1nc(C)cc1C(=O)Nc1nc2cc(C(N)=O)cc(OC)c2n1C/C=C/Cn1c(NC(=O)c2cc(C)nn2CC)nc2cc(C(N)=O)cc(OCCCOC3CN(C(=O)OC(C)(C)C)C3)c21` [Compound 27e] has an EC50 [3] of 1.3 nM.
`CCn1nc(C)cc1C(=O)Nc1nc2cc(C(N)=O)cc(OC)c2n1C/C=C/Cn1c(NC(=O)c2cc(C)nn2CC)nc2cc(C(N)=O)cc(OCCCOC3CNC3)c21` [Compound 27f] gave an EC50 [1] of 38 nM.
`CCn1nc(C)cc1C(=O)Nc1nc2cc(S(N)(=O)=O)ccc2n1C/C=C/Cn1c(NC(=O)c2cc(C)nn2CC)nc2cc(C(N)=O)cc(OCCCN(C)C(=O)CCN3C(=O)CC(SC[C@H](N)C(=O)O)C3=O)c21` (stereo partly drawn) [Compound 28, S-(1-(3-((3-((5-carbamoyl-2-(1-ethyl-3-methyl-1H-pyrazole-5-carboxamido)-1-((E)-4-(2-(1-ethyl-3-methyl-1H-pyrazole-5-carboxamido)-5-sulfamoyl-1H-benzo[d]imidazol-1-yl)but-2-en-1-yl)-1H-benzo[d]imidazol-7-yl)oxy)propyl)(methyl)amino)-3-oxopropyl)-2,5-dioxopyrrolidin-3-yl)-L-cysteine] was tested, and the EC50 [1] was 954 nM.
For `CCn1nc(C)cc1C(=O)Nc1nc2cc(C(N)=O)cc(OC)c2n1C/C=C/Cn1c(NC(=O)c2cc(C)nn2CC)nc2cc(C(N)=O)cc(OCCC3CN(C(=O)CCN4C(=O)CC(SC[C@H](N)C(=O)O)C4=O)C3)c21` (stereo partly drawn) [Compound 29, S-(1-(3-(3-(2-((5-carbamoyl-1-((E)-4-(5-carbamoyl-2-(1-ethyl-3-methyl-1H-pyrazole-5-carboxamido)-7-methoxy-1H-benzo[d]imidazol-1-yl)but-2-en-1-yl)-2-(1-ethyl-3-methyl-1H-pyrazole-5-carboxamido)-1H-benzo[d]imidazol-7-yl)oxy)ethyl)azetidin-1-yl)-3-oxopropyl)-2,5-dioxopyrrolidin-3-yl)-L-cysteine], the EC50 [1] was 52 nM.
`CCn1nc(C)cc1C(=O)Nc1nc2cc(C(N)=O)cc(OC)c2n1C/C=C/Cn1c(NC(=O)c2cc(C)nn2CC)nc2cc(C(N)=O)cc(OCCCOC3CN(C(=O)CCN4C(=O)CC(SC[C@H](N)C(=O)O)C4=O)C3)c21` (stereo partly drawn) [Compound 30, S-(1-(3-(3-(3-((5-carbamoyl-1-((E)-4-(s-carbamoyl-2-(1-ethyl-3-methyl-1H-pyrazole-5-carboxamido)-7-methoxy-1H-benzo[d]imidazol-1-yl)but-2-en-1-yl)-2-(1-ethyl-3-methyl-1H-pyrazole-5-carboxamido)-1H-benzo[d]imidazol-7-yl)oxy)propoxy)azetidin-1-yl)-3-oxopropyl)-2,5-dioxopyrrolidin-3-yl)-L-cysteine] gave an EC50 [1] of 87 nM.
`CCn1ncc(C)c1C(=O)Nc1nc2cc(C(N)=O)cc(O)c2n1C/C=C/Cn1c(NC(=O)c2c(C)cnn2CC)nc2cc(C(N)=O)cc(OC)c21` [Compound 31] was tested, and the EC50 [1] was 176 nM.
With `CCn1nc(C(=O)Nc2nc3cc(C(N)=O)cc(O)c3n2C/C=C/Cn2c(NC(=O)c3cc(C)n(CC)n3)nc3cc(C(N)=O)cc(OC)c32)cc1C` [Compound 32] the EC50 [1] was 44.5 nM.
For `COc1cc(C(N)=O)cc2nc(NC(=O)c3ccco3)n(C/C=C/Cn3c(NC(=O)c4ccco4)nc4cc(C(N)=O)cc(O)c43)c12` [Compound 33], the EC50 [1] was > 10000 nM.
In the case of `COc1cc(C(N)=O)cc2nc(NC(=O)c3cccs3)n(C/C=C/Cn3c(NC(=O)c4cccs4)nc4cc(C(N)=O)cc(O)c43)c12` [Compound 35], the EC50 [1] is reported as > 10000 nM.
With `CCn1nccc1C(=O)Nc1nc2cc(C(N)=O)cc(O)c2n1C/C=C/Cn1c(NC(=O)c2ccnn2CC)nc2cc(C(N)=O)cc(OC)c21` [Compound 37] the EC50 [1] was > 10000 nM.
